Measured values published in US11466054B2, “Inhibitors of metastasis” (BIOMARCK PHARMACEUTICALS LTD., priority 2013, dated 2022).
Where no end group is shown, it is not given here.

What was measured:
[1] = system: Human adenocarcinoma cells (PC-9); assay: Orthotopic lung cancer implantation model in SCID mice, aerosol from day 4 or day 15 (Example 5); assay type: in vivo; details: for total number of tumor nodules found in all tissues: FIG. 14
Procedure: In this study, inhibition of lung cancer metastasis by BIO-11006 was investigated in an orthotopic lung cancer implantation model in SCID mice. Human adenocarcinoma cells (PC-9) (1-2×10^5) were suspended in 40 μL of PBS containing 0.5 mg/mL of Matrigel™ (BD Bioscience) and injected into the left lung of SCID mice (n=3) using a 29 gauge needle. BIO-11006 was administered starting either 4 days or 15 days post cancer cell inoculation by aerosol using 100 μM solution in PBS by Nebulizer Delivery System (Aeroneb Lab) over 30 min once daily for 25 days post cancer cell inoculation. At end of the experiment, the mice were sacrificed and lungs, heart, and diaphragm tissues collected and number of tumor nodules in each tissue measured. The results of this experiment are presented graphically in FIGS. 13 and 14. […] When the treatment was initiated at 15 days post inoculation of cancer cells, the inhibition of tumor metastasis was about 50% in the lungs, heart, and diaphragm. FIG. 14 depicts the total number of tumor nodules found in all tissues when peptide treatment was started at 15 days post cancer cell inoculation or 4 days post cancer cell inoculation.

PC-9 cells = assay: Orthotopic lung injection xenograph model, PC-9 cells in nude mice; assay type: in vivo; details: 50 nmoles i.p. once every three days, 25 days
Procedure: The metastatic activity of cancer cells in vivo after treatment with MANS peptide or BIO-11006 was assessed in the orthotopic lung injection xenograph model. After pretreatment with either PBS, or PBS+MANS, BIO-11006 (SEQ ID NO: 106), or the control RNS peptide at 100 μM for 4 hours, PC-9 cells were injected into the left lobe of the lung of nude mice. Seven days later, these mice were given systemic treatment with either PBS only (Con), RNS (additional control peptide), MANS or BIO-11006 at 50 nmoles per intraperitoneal injection once every three days. At 25 days (6 injections) post-seeding of these tumor cells, mice were sacrificed and the number of metastasized tumor nodules in the contralateral lung and other organs was counted.

[2] = system: Human adenocarcinoma cells (PC-9); assay: Orthotopic lung cancer implantation model in SCID mice, i.p. versus inhalation (Example 4); assay type: in vivo
Procedure: In this study, inhibition of lung cancer metastasis by peptide BIO-11006 in an orthotopic lung cancer implantation model in SCID mice assessed. Human adenocarcinoma cells (PC-9) (1-2×10^5) were suspended in 40 μL of PBS, pH 7.4 containing 0.5 mg/mL of Matrigel™ (BD Bioscience) and injected into the left lung of SCID mice (n=3) using a syringe with 29 gauge needle. BIO-11006 (100 μM, in PBS) was administered either (a) by i.p. injection (50 μL) once daily for 22 days starting at 3 days post cancer cell inoculation or (b) by aerosol inhalation using a Nebulizer Delivery System (Aeroneb Lab) over 30 min once daily for 22 days starting at 3 days post cancer cell inoculation. […] Both i.p. and aerosol administration of BIO-11006 reduced cancer cell metastasis by more than 50% in the right lung and heart, and 100% in the diaphragm. Thus, both routes of administration had significant inhibitory effects on cancer cell metastasis.

A549 = assay: Transwell migration assay, A549 cells; assay type: cell-based, human; details: 12 hr
Procedure: The human adenocarcinoma-derived alveolar epithelial cell line A549 (an invasive cell line) was obtained from the American Type Culture Collection (ATCC) and was cultured in RPMI-1640 supplemented with 10% fetal bovine serum and 100 U/ml penicillin/streptomycin, in 75 cm^2 tissue culture flasks. The cells reached confluence by the third day of culture at 37° C. in an atmosphere of 95% air and 5% CO2 and were maintained by serial passage.
The test peptides (MANS, RNS, BIO-11006, BIO-11000, BIO-11002, BIO-91200, and BIO-10901) were dissolved in PBS at a pH of 7.0; slow vortex mixing for about two hours aided solubility.
Transwell plates (24-well, […]; Costar, Cambridge, Mass., USA) were used to conduct the migration assay. The lower chambers of the transwell plates were filled with 600 μl of basal medium containing 10% FBS. The cells (1×10^5) were suspended in 100 μl of basal medium containing 1% BSA and added to the upper chamber, and the plates incubated at 37° C. with 5% CO2 for 12 hr in PBS (control), or the indicated test peptides at 10, 25 or 50 μM. The cells on the upper surface of the filters were removed using cotton swabs. The cells that migrated to the lower surface of the filters were washed, fixed, and stained with hematoxylin and counted under the microscope. The percent change in migration is determined by counting the number of cells that migrated to the lower surface of the filters. At least four separate microscopic fields are counted per membrane, with a total of three replicate experiments at each concentration. The statistics software “Prizm” was used for data analysis.

[3] = aerosol 100 μM once daily, started 4 days post inoculation, FIG. 13
[4] = aerosol inhalation 100 μM over 30 min once daily for 22 days from 3 days post inoculation
[5] = i.p. injection 50 μL of 100 μM once daily for 22 days from 3 days post inoculation

N-acetyl-GAQFSKTAAK (Ac-GAQFSKTAAK; listed as Homo sapiens) [BIO-11006]
inhibition of tumor metastasis in the lungs, heart, and diaphragm ([1]; aerosol 100 μM once daily, initiated 15 days post inoculation, FIG. 13): about 50%
inhibition of tumor metastasis in the left lung, heart, and diaphragm [1, 3]: 60-90%
inhibition of tumor metastasis in the right lung [1, 3]: 100%
total number of tumor nodules found in all tissues ([1]; treatment starting at 4 days post cancer cell inoculation): even further reduced tumor nodules
total number of tumor nodules found in all tissues ([1]; treatment starting at 15 days post cancer cell inoculation): reduced tumor nodules
Metastases (affected mice/total mice) Diaphragm (PC-9 cells): 0/2
Metastases (affected mice/total mice) Heart (PC-9 cells): 0/2
Metastases (affected mice/total mice) Intestines (PC-9 cells): 0/2
Metastases (affected mice/total mice) Spleen (PC-9 cells): 0/2
No. of Metastatic Lung Tumors Mean ± SE (L't) (PC-9 cells; left lung): 0; 0
No. of Metastatic Lung Tumors Mean ± SE (R't) (PC-9 cells; right lung): 0; 0
Tumor Size (mm) Mean ± SE (PC-9 cells; tumor at site of injection, cells pretreated 100 μM 4 hours): 1.61 ± 0.37 mm
reduction of cancer cell metastasis in the diaphragm [2, 4]: 100%
reduction of cancer cell metastasis in the right lung and heart [2, 4]: more than 50%
reduction of cancer cell metastasis in the diaphragm [2, 5]: 100%
reduction of cancer cell metastasis in the right lung and heart [2, 5]: more than 50%
cell numbers in comparison to control, RNS peptide and MANS peptide (A549; A549, 25 μm, FIG. 11): significantly reduced cell numbers
migration index numbers relative to control and to RNS peptide (A549; A549, 50 μm): increased migration index numbers
migrated cell numbers relative to control and to RNS peptide (A549; A549, 50 μm, FIG. 11): decreased migrated cell numbers
